Results published in ChEMBL document CHEMBL1201862, “PubChem BioAssay data set” (2004).
Activity calls are given as the source filed them.

Experiments:
[1] = molecular target: Fructose-bisphosphate aldolase (Mycobacterium tuberculosis, UniProt P9WQA3); assay: Fluorescence-based biochemical high throughput dose response assay for inhibitors of the fructose-bisphosphate aldolase (FBA) of M. tuberculosis.; type: functional
[2] = potency of ADAM10 substrate cleavage blockers – biochemical, QFRET, dose response (AID 743254);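 also: ADAM10 enzyme with the DM2 quenched FRET peptide as substrate; EDANS fluorescence gain as the protease cuts the substrate; inhibitor potency against ADAM10 proteolytic activity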
[3] = molecular target: Disintegrin and metalloproteinase domain-containing protein 17 (Homo sapiens, UniProt P78536); assay: inhibition of ADAM17 substrate cleavage – biochemical, quenched FRET substrate, counter-screen for ADAM10 exosite inhibitor project, dose response (AID 743253)
[4] = blockers of HIV-1 ZM109 envelope-driven cell-cell fusion – HeLa effector, CEM target cells, luciferase, cherry-pick, dose response (AID 652058); type: functional, cell-based;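 also: luciferase signal from HIV-1 Env mediated cell-cell fusion of effector and target cells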
cells [5] = type: functional, cell-based; settings: HEK-CNG
[6] = HIV-1 AD8 envelope cell-cell fusion blockers – cherry-pick, dose response (AID 652062); type: functional, cell-based;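 also: luciferase signal from cell-cell fusion driven by HIV-1 clade B AD8 Env; potency is for inhibitors of fusion seen as a drop in luminescence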
[7] = molecular target: T1, Polyadenylate-binding protein 1 (Homo sapiens, UniProt P11940); assay: MLLE domain peptide-binding blockers, IC50 – biochemical, fluorescence polarization, FITC-PAM2 peptide, dose response (AID 602259); type: functional; settings: read-out: IC50_Mean
[8] = off-target signal loss in HeLa-CEM21 co-culture – HeLa F-luc CTL cells, cherry-picked, counter-screen for HIV-1 Env fusion inhibitor project, dose response (AID 652040); type: functional, cell-based;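 also: potency for signal decrease marking cytotoxic or nonspecific inhibition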
[9] = cAMP pathway inhibition in counterscreen cell line – TR-FRET cAMP detection, counter-screen for MC4R biased antagonist project, dose response (AID 602305); type: functional, cell-based;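 also: U2OS cells stimulated with forskolin near its EC80 as the cAMP inducer; potency is for inhibition of forskolin-stimulated cAMP signaling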
Melanocortin receptor 4 = Melanocortin receptor 4 (Homo sapiens, UniProt P32245); assay: inhibitors of MC4R cAMP signaling – cell-based, TR-FRET, biased antagonists, dose response (AID 602298); type: functional;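 also: antagonist potency against agonist-stimulated cAMP production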
[10] = molecular target: Sphingosine 1-phosphate receptor 1 (Homo sapiens, UniProt P21453); type: functional;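 also: Tango beta-arrestin reporter U2OS cells stimulated with S1P near its EC80; inhibitor potency meaning antagonism of receptor activation by the natural agonist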
[11] = viability loss in CEM21 cells – cell-based, CellTiter-Glo luminescence, cherry-picked, cytotoxicity control for viral fusion inhibitor project, dose response (AID 652042); type: functional;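 also: potency for signal decrease meaning cytotoxicity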
Paired box protein Pax-8 = Paired box protein Pax-8 (Homo sapiens, UniProt Q06710); assay: PAX8 transcriptional activity inhibition in RMG-I – RMG-I cells, luciferase, cherry-pick, dose response (AID 687027); type: functional, cell-based;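 also: luciferase reporter driven by Pax8 target thyroperoxidase promoter measured by SteadyGlo luminescence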
[12] = blockers of HIV-1 envelope-mediated cell-cell fusion – cherry-pick, dose response (AID 652057); type: functional, cell-based
Galanin receptor type 3 = Galanin receptor type 3 (Homo sapiens, UniProt O60755); assay: Fluorescence-based cell-based primary high throughput dose response assay to identify antagonists of the Galanin Receptor 3 (GalR3).; type: functional
[13] = molecular target: T1, Polyadenylate-binding protein 1; assay: MLLE binding blockers, Cy5 peptide tracer – biochemical, fluorescence polarization, Cy5-PAM2 peptide, secondary, miRNA deadenylation inhibitor project, dose response (AID 602260); type: functional; settings: read-out: IC50_Mean
[14] = molecular target: T2, Sphingosine 1-phosphate receptor 4 (Homo sapiens, UniProt O95977); assay: Fluorescence dose response cell-based high throughput screening assay for antagonists of the Sphingosine 1-Phosphate Receptor 4 (S1P4). [Related pubchem assays: 1524 (Confirmation in triplicates.), 1510 (Primary screen.)]; type: functional
T2 sequence (O95977 whole entry): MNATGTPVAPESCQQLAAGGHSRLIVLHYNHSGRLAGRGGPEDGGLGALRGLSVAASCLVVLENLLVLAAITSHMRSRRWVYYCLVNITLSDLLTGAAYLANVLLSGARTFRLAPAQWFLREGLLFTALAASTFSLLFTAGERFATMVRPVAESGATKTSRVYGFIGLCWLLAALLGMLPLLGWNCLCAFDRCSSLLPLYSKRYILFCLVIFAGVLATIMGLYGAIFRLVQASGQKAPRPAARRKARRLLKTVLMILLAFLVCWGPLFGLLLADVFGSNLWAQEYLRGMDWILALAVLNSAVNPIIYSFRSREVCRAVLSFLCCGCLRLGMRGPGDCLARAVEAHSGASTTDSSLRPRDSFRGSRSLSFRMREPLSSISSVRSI

[15] = molecular target: Dual specificity tyrosine-phosphorylation-regulated kinase 1A (Rattus norvegicus, UniProt Q63470); type: biochemical, Homo sapiens
Streptokinase A = molecular target: T3, Streptokinase A (Streptococcus pyogenes serotype M1, UniProt P10520); assay: viability-normalized secreted streptokinase activity reduction – plasminogen activation absorbance, OD405, dose response (AID 1914); type: functional, Streptococcus pyogenes M1 GAS;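 also: secreted streptokinase activity via plasminogen activation per viability signal from cell pellet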
T3 sequence (P10520 whole entry): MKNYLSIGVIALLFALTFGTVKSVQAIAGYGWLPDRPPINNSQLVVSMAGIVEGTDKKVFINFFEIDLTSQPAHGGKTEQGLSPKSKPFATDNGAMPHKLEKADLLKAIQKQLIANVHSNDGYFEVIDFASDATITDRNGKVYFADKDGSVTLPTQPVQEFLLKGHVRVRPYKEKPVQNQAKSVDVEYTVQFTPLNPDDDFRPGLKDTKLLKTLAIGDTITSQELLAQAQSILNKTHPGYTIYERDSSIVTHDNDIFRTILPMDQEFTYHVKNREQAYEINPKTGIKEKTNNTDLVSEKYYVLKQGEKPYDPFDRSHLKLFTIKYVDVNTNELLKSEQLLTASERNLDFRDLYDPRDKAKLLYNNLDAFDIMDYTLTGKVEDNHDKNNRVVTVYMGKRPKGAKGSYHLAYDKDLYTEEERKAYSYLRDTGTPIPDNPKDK

[16] = system: Streptococcus sp. 'group A'; assay: Streptococcus pyogenes SK(-)GAS viability under kanamycin – luminescence, BacTiterGlo, confirmation, counter-screen for streptokinase expression inhibitor project, dose response (AID 1900); type: functional, organism-based
[17] = Luminescence Cell-Based Dose Retest to Confirm Inhibitors of Cancer Stem Cells. [Related pubchem assays (depositor defined):AID2717, AID2721]; type: functional; settings: Homo sapiens
[18] = reduction of Shn3 3'UTR-driven luciferase in osteoblasts – cell-based, Clone20 osteoblasts, firefly luciferase, cherry-picked, dose response (AID 624132); type: functional;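 also: firefly luciferase luminescence from reporter carrying the Shn3 3'UTR in osteoblasts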
[19] = loss of viability in HepG2 cells – cell-based, CellTiter-Glo, cherry-picked, cytotoxicity control for Shn3 inhibitor project, dose response (AID 624134); type: functional
[20] = Shn3 3'UTR reporter signal decrease – cell-based, Clone20 osteoblasts, firefly luciferase, cherry-pick, set 2, Schnurri-3 inhibitor project, dose response (AID 720490); type: functional;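 also: actives lower the luminescence signal as inhibitors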
Streptococcus = assay: GAS UMAA2166 growth inhibition – luminescence, BacTiterGlo, counter-screen for streptokinase expression inhibitor project, dose response (AID 1915); type: functional, organism-based;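 also: potency for reduction of bacterial viability or growth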
cells [21] = assay: cells
Major prion protein = Major prion protein (Homo sapiens, UniProt P04156); type: functional, cell-based
[22] = molecular target: 1-phosphatidylinositol 4,5-bisphosphate phosphodiesterase beta-3 (Homo sapiens, UniProt Q01970); assay: Fluorescence-based biochemical high throughput dose response assay to identify inhibitors of phospholipase C isozymes (PLC-B3).
[23] = molecular target: 1-phosphatidylinositol 4,5-bisphosphate phosphodiesterase gamma-1 (Homo sapiens, UniProt P19174); assay: Counterscreen for inhibitors of phospholipase C isozymes (PLC-B3): Fluorescence-based biochemical high throughput dose response assay to identify inhibitors of phospholipase C isozymes (PLC-gamma1).
[24] = molecular target: T4, Oxysterols receptor LXR-beta (Homo sapiens, UniProt P55055); type: functional, cell-based;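 also: agonist activity at LXR measured by a cell-based luminescence readout across a dose range, run as a counterscreen for daf-12 agonists; HEK293 cells with Gal4-LXR fusion and GAL4-driven luciferase reporter; potency for activation of Gal4-LXR reporter so compounds are agonists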
T4 sequence (P55055 whole entry): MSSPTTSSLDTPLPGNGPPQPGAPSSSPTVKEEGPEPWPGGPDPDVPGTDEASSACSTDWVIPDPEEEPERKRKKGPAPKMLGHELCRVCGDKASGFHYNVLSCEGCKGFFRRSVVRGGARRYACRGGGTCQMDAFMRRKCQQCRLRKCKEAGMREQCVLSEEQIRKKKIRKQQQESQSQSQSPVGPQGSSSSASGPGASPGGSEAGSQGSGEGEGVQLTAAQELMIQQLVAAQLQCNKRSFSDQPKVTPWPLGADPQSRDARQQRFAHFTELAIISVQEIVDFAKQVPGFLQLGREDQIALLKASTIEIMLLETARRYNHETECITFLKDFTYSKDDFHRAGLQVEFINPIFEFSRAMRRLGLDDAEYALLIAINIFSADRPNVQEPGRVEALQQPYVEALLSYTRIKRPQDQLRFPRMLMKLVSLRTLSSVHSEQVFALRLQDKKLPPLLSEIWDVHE

Structure (SMILES): COc1ccc(CNCc2ccc(OC)c3ccccc23)cc1
- IC50 [1]: > 10 µM (inactive)

Structure (SMILES): CSc1cccc(NC(=O)CCCOc2ccc(Cl)cc2C)c1
- IC50 [2]: 65.6 µM (inactive)
- IC50 [3]: > 69.5 µM (inactive)

Structure (SMILES): NC(=S)c1cn([C@@H]2O[C@H](CO)[C@@H](O)[C@H]2O)c2ncnc(N)c12
- AC50 [4]: < 0.26 µM (active)
- EC50 (cells [5]): > 29.9 µM (inactive)
- AC50 [6]: < 0.26 µM (active)
- IC50 [7]: > 66 µM (inactive)
- AC50 [8]: < 0.26 µM (active)
- IC50 [9]: > 64.6 µM (inactive)
- IC50 (Melanocortin receptor 4): > 64.6 µM (inactive)
- IC50 [10]: 1.96 µM (active)
- AC50 [11]: 0.344 µM (active)
- AC50 (Paired box protein Pax-8): 0.294 µM (active)
- AC50 [12]: < 0.26 µM (active)
- IC50 (Galanin receptor type 3): 1.01 µM (active)
- IC50 [13]: > 66 µM (inactive)
- IC50 [14]: 0.42 µM (active)
- AC50 [15]: 0.158 µM (active)

Structure (SMILES): Cc1cccc(NS(=O)(=O)c2ccc(C3CCCCC3)cc2)c1
- EC50 (Streptokinase A): 5.02 µM (active)
- EC50 [16]: 6.43 µM (active)
- AC50 [17]: 5.27 µM (active)
- AC50 [18]: 5.13 µM (active)
- AC50 [19]: > 70 µM (inactive)
- AC50 [20]: 4.66 µM (active)
- EC50 (Streptococcus): 6.98 µM (active)

Structure (SMILES): Cc1cccc(C)c1NC(=S)Nc1ccccc1C(=O)NCc1ccco1
- IC50 [1]: 6.61 µM (active)

Structure (SMILES): Cc1ccc(-n2nc3c(SCCN4CCOCC4)nnc(C)c3c2C)cc1
- IC50 (cells [21]): > 138 µM (inactive)
- IC50 (Major prion protein): 12.8 µM (inactive)

Structure (SMILES): Cc1ccc(C(=O)Nc2nnc(N=C(S)Nc3ccccc3)s2)cc1
- IC50 [2]: > 69.5 µM (inactive)

Structure (SMILES): Cc1cc(C(=O)NNC(=S)NCC(C)C)cs1
- IC50 [22]: > 122 µM (inactive)
- IC50 [23]: > 122 µM (inactive)

Structure (SMILES): CCOC(=O)c1cnc(SCCc2ccccc2)nc1N
- EC50 [24]: > 67.5 µM (inactive)
